Read-outs that look alike come from different tables or passages of the source.
Legend:
[1] = test system: normal mice; experiment: in vivo; details: method of test example 1; for LD50: Table 1, formula I compounds; for LD50 vALUE: Table 2, formula II compounds
Procedure: Kunming mice with 4˜6 weeks old and 18 g˜22 g by weight were taken, 50% males and 50% females. […] The condition of mortality and toxicity were observed after administration. Totally observing for 14 days, LD50 value was calculated using Bliss method according to the mortality.

[2] = test system: Lung cancer A549; experiment: MTT cytotoxicity, lung cancer A549; details: read-out: IC50 of anti-lung cancer A549, method of test example 2
Procedure: Cell morphologies were observed after being cultivated for 24 hours.

Row | SMILES | LD50 [1] [mmol/kg] | IC50 ([2]; Table 1, formula I compounds) [µM] | LD50 vALUE [1] [mmol/kg] | IC50 ([2]; Table 2, formula II compounds) [µM]
1 | CN(C)CCCCC1C(=O)[O][Pt][O]C1=O.NCC1CCCN1 [Compound 48] | 0.831 | 31 |  | 
2 | CN(CCCCC1C(=O)[O][Pt]2([NH]C3CCCCC3[NH]2)[O]C1=O)C(C)(C)C (stereo not shown) [Compound 34] | 0.905 |  |  | 
3 | CCN(C)CC(O)CCC1C(=O)[O][Pt][O]C1=O.NC1CCCCC1N (stereo not shown) [Compound 54] | 0.792 |  |  | 
4 | CN(C)CCCCC1C(=O)[O][Pt][O]C1=O.NCC1CCN1 [Compound 47] | 0.815 | 23 |  | 
5 | CC1CCN(CCCCC2C(=O)[O][Pt]3([NH]C4CC=CCC4[NH]3)[O]C2=O)C1 (stereo not shown) [Compound 33] | 0.826 | 7 |  | 
6 | CCN(C)CC(CCC1C(=O)[O][Pt][O]C1=O)OC.N.N (stereo not shown) [Compound 30] | 0.759 | 12 |  | 
7 | CCN(C)CC(CCC1C(=O)[O][Pt][O]C1=O)OC.NC1CCCCC1N (stereo not shown) [Compound 31] | 0.732 | 5 |  | 
8 | CCCC[NH][Pt]1([NH]CCCC)[O]C(=O)C(CCCC[N+](CC)(CC)CC)C(=O)[O]1 [Compound 67] |  |  | 0.802 | 27
9 | O=C1[O][Pt]2([NH]C3CCCCC3[NH]2)[O]C(=O)C1CCCCN(C1CCCC1)C1CCCC1 (stereo not shown) [Compound 42] | 0.826 | 5 |  | 
10 | CC1CC(C)[NH][Pt]2([NH]1)[O]C(=O)C(CCCCN(C)C)C(=O)[O]2 (stereo not shown) [Compound 45] | 0.834 | 31 |  | 
11 | CCN(CC)CCCCC1C(=O)[O][Pt]([NH]C2CCCC2)([NH]C2CCCC2)[O]C1=O [Compound 55] | 0.852 | 61 |  | 
12 | CN(CO)CCCCC1C(=O)[O][Pt]([NH2])([NH]C2CCC2)[O]C1=O (stereo not shown) [Compound 52] | 0.687 | 41 |  | 
13 | CCCN.CCN(CC)CCCCC1C(=O)[O][Pt][O]C1=O.NC1CC=NC1 [Compound 63] | 0.804 | 25 |  | 
14 | COC1CC(C)N(CCCCC2C(=O)[O][Pt][O]C2=O)C1C.NC1CCCCC1N (stereo not shown) [Compound 39] | 0.711 | 6 |  | 
15 | CCN(CC)CCCCC1C(=O)[O][Pt][O]C1=O.NC1CC(O)C(O)CC1N [Compound 40] | 0.683 | 21 |  | 
16 | CC1CC(Cl)C(C)N1CCCCC1C(=O)[O][Pt]2([NH]C3CCCCC3[NH]2)[O]C1=O (stereo not shown) [Compound 41] | 0.675 | 13 |  | 
17 | CN(CCCCC1C(=O)[O][Pt]2([NH]C3CCCCC3[NH]2)[O]C1=O)Cc1ccccc1 (stereo not shown) [Compound 57] | 0.613 |  |  | 
18 | CN(C)CCCCC1C(=O)[O][Pt][O]C1=O.NCC1CCCCN1 [Compound 49] | 0.817 | 45 |  | 
19 | CCCC[N+](C)(C)CCCCC1C(=O)[O][Pt]2([NH][C@H]3CC(OC)C(OC)C[C@H]3[NH]2)[O]C1=O (stereo partly shown) [Compound 65] |  |  | 0.615 | 16
20 | CN(CCCCC1C(=O)[O][Pt]2([NH]C3CCCCC3[NH]2)[O]C1=O)Cc1ccc(Cl)cc1 (stereo not shown) [Compound 58] | 0.607 | 37 |  | 
21 | O=C1[O][Pt]2([NH]C3CCCCC3[NH]2)[O]C(=O)C1CCCCN1CCOCC1 (stereo not shown) [Compound 51] | 0.654 | 26 |  | 
22 | CC[N+](CC)(CC)CCCCC1C(=O)[O][Pt]([NH2])([NH2])[O]C1=O [Compound 66] |  |  | 0.677 | 20
23 | O=C1[O][Pt]([NH]C2CCCC2)([NH]C2CCCC2)[O]C(=O)C1CCCCN(C1CC1)C1CC1 [Compound 56] | 0.816 | 57 |  | 
24 | NC1CCCCC1N.O=C1[O][Pt][O]C(=O)C1CCC(Cl)CN1CCCCC1 (stereo not shown) [Compound 36] | 0.713 | 7 |  | 
25 | CN(C)CCCCC1C(=O)[O][Pt][O]C1=O.NCC1CN1 [Compound 46] | 0.823 | 27 |  | 
26 | CC1CCN(CCCCC2C(=O)[O][Pt]3([NH]C4CCCCC4[NH]3)[O]C2=O)CC1 (stereo not shown) [Compound 37] | 0.825 | 9 |  | 

Reference: patent publication US9725477B2, “Platinum compounds of malonic acid derivative having leaving group containing amino or alkylamino” (BEIJING FSWELCOME TECHNOLOGY DEVELOPMENT CO., LTD, priority 2012, dated 2017)
